# Assay results taken from the supplement of paper PMC11451515.
# Tested on: NOMO1
# Assay: cell viability relative to DMSO control; higher = less cytotoxic
# Conditions: 48 h
# Summary of the method: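 Cells were incubated for 48 h at 37°C before CellTiter-Glo One luminescence was read. The cells were NOMO1 or SEM (500 cells/well) or P12-Ichikawa (1000 cells/well) leukemia cells, adapted for at least four passages in each medium and seeded in 1536-well plates (5 μl). Dosing used library compounds in DMSO applied by pin over 11 threefold points, 47 μM to 0.79 nM. Viability is the per-plate percentage of DMSO wells, with cell-free wells as background.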
# [1] = HPLM + 10% dialyzed FBS, 0.000781 µM
# [2] = HPLM + 10% dialyzed FBS, 0.00234 µM
# [3] = HPLM + 10% dialyzed FBS, 0.00702 µM
# [4] = HPLM + 10% dialyzed FBS, 0.0211 µM
# [5] = HPLM + 10% dialyzed FBS, 0.0632 µM
# [6] = HPLM + 10% dialyzed FBS, 0.19 µM
# [7] = HPLM + 10% dialyzed FBS, 0.569 µM
# [8] = HPLM + 10% dialyzed FBS, 1.71 µM
# [9] = HPLM + 10% dialyzed FBS, 5.12 µM
# [10] = HPLM + 10% dialyzed FBS, 15.4 µM
# [11] = HPLM + 10% dialyzed FBS, 46.1 µM
# [12] = RPMI 5 mM glucose + 10% FBS, 0.000781 µM
# [13] = RPMI 5 mM glucose + 10% FBS, 0.00234 µM
# [14] = RPMI 5 mM glucose + 10% FBS, 0.00702 µM
# [15] = RPMI 5 mM glucose + 10% FBS, 0.0211 µM
# [16] = RPMI 5 mM glucose + 10% FBS, 0.0632 µM
# [17] = RPMI 5 mM glucose + 10% FBS, 0.19 µM
# [18] = RPMI 5 mM glucose + 10% FBS, 0.569 µM
# [19] = RPMI 5 mM glucose + 10% FBS, 1.71 µM
# [20] = RPMI 5 mM glucose + 10% FBS, 5.12 µM
# [21] = RPMI 5 mM glucose + 10% FBS, 15.4 µM
# [22] = RPMI 5 mM glucose + 10% FBS, 46.1 µM
# [23] = RPMI 5 mM glucose + 10% dialyzed FBS, 0.000781 µM
# [24] = RPMI 5 mM glucose + 10% dialyzed FBS, 0.00234 µM
# [25] = RPMI 5 mM glucose + 10% dialyzed FBS, 0.00702 µM
# [26] = RPMI 5 mM glucose + 10% dialyzed FBS, 0.0211 µM
# [27] = RPMI 5 mM glucose + 10% dialyzed FBS, 0.0632 µM
# [28] = RPMI 5 mM glucose + 10% dialyzed FBS, 0.19 µM
# [29] = RPMI 5 mM glucose + 10% dialyzed FBS, 0.569 µM
# [30] = RPMI 5 mM glucose + 10% dialyzed FBS, 1.71 µM
# [31] = RPMI 5 mM glucose + 10% dialyzed FBS, 5.12 µM
# [32] = RPMI 5 mM glucose + 10% dialyzed FBS, 15.4 µM
# [33] = RPMI 5 mM glucose + 10% dialyzed FBS, 46.1 µM
compound,measurement,setting,value
O=[S+]([O-])(NCCNC/C=C/c1ccc(Br)cc1)c1cccc2cnccc12,cell viability,[1],110%
same,cell viability,[2],114%
same,cell viability,[3],109%
same,cell viability,[4],81.5%
same,cell viability,[5],101%
same,cell viability,[6],105%
same,cell viability,[7],104%
same,cell viability,[8],97.5%
same,cell viability,[9],95.4%
same,cell viability,[10],79.3%
same,cell viability,[11],69.5%
same,cell viability,[12],98.4%
same,cell viability,[13],88.6%
same,cell viability,[14],92.8%
same,cell viability,[15],105%
same,cell viability,[16],91.3%
same,cell viability,[17],97.6%
same,cell viability,[18],96.1%
same,cell viability,[19],98.8%
same,cell viability,[20],84%
same,cell viability,[21],87.5%
same,cell viability,[22],85.6%
same,cell viability,[23],103%
same,cell viability,[24],100%
same,cell viability,[25],90.7%
same,cell viability,[26],78.4%
same,cell viability,[27],97.6%
same,cell viability,[28],89.9%
same,cell viability,[29],89.1%
same,cell viability,[30],85.3%
same,cell viability,[31],89.7%
same,cell viability,[32],74.3%
same,cell viability,[33],81.7%
CCOC(=O)[C@@H](N)CCC(=O)N[C@@H](CSCc1ccccc1)C(=O)N[C@@H](C(=O)OCC)c1ccccc1,cell viability,[23],128%
same,cell viability,[24],116%
same,cell viability,[25],123%
same,cell viability,[26],130%
same,cell viability,[27],133%
same,cell viability,[28],136%
same,cell viability,[29],121%
same,cell viability,[30],133%
same,cell viability,[31],137%
same,cell viability,[32],139%
same,cell viability,[33],98.9%
CC[C@H]1CN2CCc3cc(OC)c(OC)cc3[C@@H]2C[C@@H]1C[C@H]1NCCc2cc(OC)c(OC)cc21,cell viability,[1],95.5%
same,cell viability,[2],105%
same,cell viability,[3],101%
same,cell viability,[4],107%
same,cell viability,[5],104%
same,cell viability,[6],98.5%
same,cell viability,[7],54.7%
same,cell viability,[8],22.7%
same,cell viability,[9],8.84%
same,cell viability,[10],10.8%
same,cell viability,[11],7.47%
same,cell viability,[12],103%
same,cell viability,[13],127%
same,cell viability,[14],122%
same,cell viability,[15],109%
same,cell viability,[16],121%
same,cell viability,[17],111%
same,cell viability,[18],50.4%
same,cell viability,[19],27%
same,cell viability,[20],11.4%
same,cell viability,[21],9.75%
same,cell viability,[22],8.48%
same,cell viability,[23],106%
same,cell viability,[24],102%
same,cell viability,[25],98.3%
same,cell viability,[26],123%
same,cell viability,[27],118%
same,cell viability,[28],109%
same,cell viability,[29],47.5%
same,cell viability,[30],27.8%
same,cell viability,[31],14.9%
same,cell viability,[32],9.41%
same,cell viability,[33],8.82%
CCOC(=O)N[C@@H]1CC[C@@H]2[C@@H](C1)C[C@H]1C(=O)O[C@H](C)[C@H]1[C@H]2/C=C/c1ccc(-c2cccc(F)c2)cn1,cell viability,[12],114%
same,cell viability,[13],115%
same,cell viability,[14],122%
same,cell viability,[15],128%
same,cell viability,[16],127%
same,cell viability,[17],121%
same,cell viability,[18],120%
same,cell viability,[19],131%
same,cell viability,[20],127%
same,cell viability,[21],142%
same,cell viability,[22],79%
same,cell viability,[23],125%
same,cell viability,[24],112%
same,cell viability,[25],122%
same,cell viability,[26],109%
same,cell viability,[27],115%
same,cell viability,[28],118%
same,cell viability,[29],133%
same,cell viability,[30],129%
same,cell viability,[31],131%
same,cell viability,[32],125%
same,cell viability,[33],76.8%
N#Cc1ccc(NC(=O)Nc2ccccc2Br)c2nn[nH]c12,cell viability,[12],101%
same,cell viability,[13],122%
same,cell viability,[14],102%
same,cell viability,[15],107%
same,cell viability,[16],117%
same,cell viability,[17],119%
same,cell viability,[18],122%
same,cell viability,[19],114%
same,cell viability,[20],107%
same,cell viability,[21],120%
same,cell viability,[22],119%
same,cell viability,[23],94.1%
same,cell viability,[24],106%
same,cell viability,[25],106%
same,cell viability,[26],105%
same,cell viability,[27],101%
same,cell viability,[28],113%
same,cell viability,[29],123%
same,cell viability,[30],109%
same,cell viability,[31],105%
same,cell viability,[32],101%
same,cell viability,[33],115%
Cc1cccc(-c2[nH]c(C(C)(C)C)nc2-c2ccc3c(c2)OCO3)n1,cell viability,[1],94.7%
same,cell viability,[2],105%
same,cell viability,[3],107%
same,cell viability,[4],114%
same,cell viability,[5],115%
same,cell viability,[6],95.4%
same,cell viability,[7],104%
same,cell viability,[8],114%
same,cell viability,[9],103%
same,cell viability,[10],24%
same,cell viability,[11],11.9%
same,cell viability,[12],97.4%
same,cell viability,[13],106%
same,cell viability,[14],100%
same,cell viability,[15],93.4%
same,cell viability,[16],101%
same,cell viability,[17],92.7%
same,cell viability,[18],100%
same,cell viability,[19],92.6%
same,cell viability,[20],86.3%
same,cell viability,[21],11.5%
same,cell viability,[22],8.98%
same,cell viability,[23],101%
same,cell viability,[24],92.1%
same,cell viability,[25],94.4%
same,cell viability,[26],94.3%
same,cell viability,[27],107%
same,cell viability,[28],86.9%
same,cell viability,[29],92.8%
same,cell viability,[30],97.2%
same,cell viability,[31],97.3%
same,cell viability,[32],13.9%
same,cell viability,[33],9.64%
CC(C)n1cnc2c(NCCc3ccc(O)cc3)nc(-c3csc4ccccc34)nc21,cell viability,[1],108%
same,cell viability,[2],98%
same,cell viability,[3],124%
same,cell viability,[4],99.4%
same,cell viability,[5],121%
same,cell viability,[6],116%
same,cell viability,[7],144%
same,cell viability,[8],139%
same,cell viability,[9],51.1%
same,cell viability,[10],33.8%
same,cell viability,[11],13.4%
same,cell viability,[12],115%
same,cell viability,[13],114%
same,cell viability,[14],104%
same,cell viability,[15],113%
same,cell viability,[16],127%
same,cell viability,[17],114%
same,cell viability,[18],119%
same,cell viability,[19],113%
same,cell viability,[20],119%
same,cell viability,[21],57.1%
same,cell viability,[22],24.9%
same,cell viability,[23],114%
same,cell viability,[24],116%
same,cell viability,[25],115%
same,cell viability,[26],121%
same,cell viability,[27],124%
same,cell viability,[28],116%
same,cell viability,[29],125%
same,cell viability,[30],140%
same,cell viability,[31],130%
same,cell viability,[32],57.1%
same,cell viability,[33],29.1%
CC(C)(C)OC(=O)Nc1ccc(-c2cc(C(=O)NCCCCCCC(=O)NO)no2)cc1,cell viability,[1],88.5%
same,cell viability,[2],89%
same,cell viability,[3],84.4%
same,cell viability,[4],89.8%
same,cell viability,[5],98.3%
same,cell viability,[6],104%
same,cell viability,[7],104%
same,cell viability,[8],99.4%
same,cell viability,[9],68.7%
same,cell viability,[10],13.7%
same,cell viability,[11],4.88%
same,cell viability,[12],86.7%
same,cell viability,[13],80.1%
same,cell viability,[14],81.1%
same,cell viability,[15],84.3%
same,cell viability,[16],85.3%
same,cell viability,[17],88.6%
same,cell viability,[18],99.4%
same,cell viability,[19],80.8%
same,cell viability,[20],67.1%
same,cell viability,[21],11.8%
same,cell viability,[22],4.55%
same,cell viability,[23],86.3%
same,cell viability,[24],82.8%
same,cell viability,[25],89.2%
same,cell viability,[26],88.2%
same,cell viability,[27],99.3%
same,cell viability,[28],92.1%
same,cell viability,[29],101%
same,cell viability,[30],72.9%
same,cell viability,[31],73.8%
same,cell viability,[32],13.1%
same,cell viability,[33],4.05%
OC[C@H]1OC(OC2=CC3=C(C(=C2)O)C(=O)\C(=C/O3)C4=CC=C(O)C=C4)[C@H](O)[C@@H](O)[C@@H]1O (stereo partly drawn),cell viability,[1],94%
same,cell viability,[2],86.6%
same,cell viability,[3],79.6%
same,cell viability,[4],92.8%
same,cell viability,[5],89.9%
same,cell viability,[6],89.2%
same,cell viability,[7],72%
same,cell viability,[8],61.9%
same,cell viability,[9],88.9%
same,cell viability,[10],72%
same,cell viability,[11],74.2%
same,cell viability,[12],78.9%
same,cell viability,[13],92.5%
same,cell viability,[14],85.9%
same,cell viability,[15],77.8%
same,cell viability,[16],92%
same,cell viability,[17],90.7%
same,cell viability,[18],87.9%
same,cell viability,[19],84.7%
same,cell viability,[20],84.1%
same,cell viability,[21],86.3%
same,cell viability,[22],72%
same,cell viability,[23],88.5%
same,cell viability,[24],73.9%
same,cell viability,[25],78.6%
same,cell viability,[26],78.5%
same,cell viability,[27],80.8%
same,cell viability,[28],73.4%
same,cell viability,[29],80.4%
same,cell viability,[30],82.8%
same,cell viability,[31],76.7%
same,cell viability,[32],77.8%
same,cell viability,[33],66.7%
